Laboratory results from PubChem BioAssay AID1963436 (Molecular Pharmacology Branch, DTP, NCI, 2024).

Test system: OVCAR-5 complex spheroid (HUVEC/MSC), viability % T/C
Experiment: Anticancer human tumor OVCAR-5 cell line growth inhibition [Asc];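 note: spheroids exposed to agents for 7 days before readout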;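 for viability, T/C: 100% = DMSO vehicle-treated wells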
Details: for IC50: curve of first compound; for viability, T/C: stronger effect = lower value
In short: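 Spheroid model: tumor line + HUVEC + hMSC. Single agents and combinations; top conc. at/near clinical Cmax (10 microM if undetermined), half-log dilutions. DMSO stocks at 800-fold test concentration.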

[1] = second compound 0.1 µM, first compound 0.00316 µM
[2] = second compound 0.1 µM, first compound 0.01 µM
[3] = second compound 0.1 µM, first compound 0.0316 µM
[4] = second compound 0.1 µM, first compound 0.1 µM
[5] = second compound 0.316 µM, first compound 0.00316 µM
[6] = second compound 0.316 µM, first compound 0.01 µM
[7] = second compound 0.316 µM, first compound 0.0316 µM
[8] = second compound 0.316 µM, first compound 0.1 µM
[9] = second compound 1 µM, first compound 0.00316 µM
[10] = second compound 1 µM, first compound 0.01 µM
[11] = second compound 1 µM, first compound 0.0316 µM
[12] = second compound 1 µM, first compound 0.1 µM
[13] = second compound 0.03 µM, first compound 0.00316 µM
[14] = second compound 0.03 µM, first compound 0.01 µM
[15] = second compound 0.03 µM, first compound 0.0316 µM
[16] = second compound 0.03 µM, first compound 0.1 µM
[17] = second compound 0.0949 µM, first compound 0.00316 µM
[18] = second compound 0.0949 µM, first compound 0.01 µM
[19] = second compound 0.0949 µM, first compound 0.0316 µM
[20] = second compound 0.0949 µM, first compound 0.1 µM
[21] = second compound 0.3 µM, first compound 0.00316 µM
[22] = second compound 0.3 µM, first compound 0.01 µM
[23] = second compound 0.3 µM, first compound 0.0316 µM
[24] = second compound 0.3 µM, first compound 0.1 µM
[25] = second compound 0.949 µM, first compound 0.00316 µM
[26] = second compound 0.949 µM, first compound 0.01 µM
[27] = second compound 0.949 µM, first compound 0.0316 µM
[28] = second compound 0.949 µM, first compound 0.1 µM
[29] = second compound 3 µM, first compound 0.00316 µM
[30] = second compound 3 µM, first compound 0.01 µM
[31] = second compound 3 µM, first compound 0.0316 µM
[32] = second compound 3 µM, first compound 0.1 µM

NC1CCC(NC2CC2c2ccccc2)CC1 (stereo not given) + CNC(C)C(=O)NC1CN(S(=O)(=O)c2cccc(S(=O)(=O)N3CCC4CCC(C(=O)NC(c5ccccc5)c5ccccc5)N4C(=O)C(NC(=O)C(C)NC)C3)c2)CCC2CCC(C(=O)NC(c3ccccc3)c3ccccc3)N2C1=O
IC50 (second compound 0.01 µM): > 0.1 µM | IC50 (second compound 0.0316 µM): > 0.1 µM | IC50 (second compound 0.1 µM): > 0.1 µM | IC50 (second compound 0.316 µM): > 0.1 µM | IC50 (second compound 1 µM): > 0.1 µM | viability, T/C (second compound 0.01 µM, first compound 0.000316 µM): 92.9% | viability, T/C (second compound 0.01 µM, first compound 0.001 µM): 89.8% | viability, T/C (second compound 0.01 µM, first compound 0.00316 µM): 80.8% | viability, T/C (second compound 0.01 µM, first compound 0.01 µM): 84.8% | viability, T/C (second compound 0.01 µM, first compound 0.0316 µM): 80.8% | viability, T/C (second compound 0.01 µM, first compound 0.1 µM): 79.9% | viability, T/C (second compound 0.0316 µM, first compound 0.000316 µM): 75.8% | viability, T/C (second compound 0.0316 µM, first compound 0.001 µM): 77.7% | viability, T/C (second compound 0.0316 µM, first compound 0.00316 µM): 75.6% | viability, T/C (second compound 0.0316 µM, first compound 0.01 µM): 71.5% | viability, T/C (second compound 0.0316 µM, first compound 0.0316 µM): 69.1% | viability, T/C (second compound 0.0316 µM, first compound 0.1 µM): 66.9% | viability, T/C (second compound 0.1 µM, first compound 0.000316 µM): 76.5% | viability, T/C (second compound 0.1 µM, first compound 0.001 µM): 70% | viability, T/C [1]: 75.5% | viability, T/C [2]: 67.3% | viability, T/C [3]: 74.5% | viability, T/C [4]: 71% | viability, T/C (second compound 0.316 µM, first compound 0.000316 µM): 66.1% | viability, T/C (second compound 0.316 µM, first compound 0.001 µM): 73% | viability, T/C [5]: 66.2% | viability, T/C [6]: 70.4% | viability, T/C [7]: 75.1% | viability, T/C [8]: 75.7% | viability, T/C (second compound 1 µM, first compound 0.000316 µM): 72.1% | viability, T/C (second compound 1 µM, first compound 0.001 µM): 74.1% | viability, T/C [9]: 70.5% | viability, T/C [10]: 72.4% | viability, T/C [11]: 80.8% | viability, T/C [12]: 78.1%

O=C(c1ccc(F)c(F)c1Nc1ccc(I)cc1F)N1CC(O)([C@@H]2CCCCN2)C1 + Cc1c(S(C)(=O)=O)c(-c2cc(F)cc(N3CCN(c4ccc(NS(=O)(=O)c5ccc(NC(CCN6CCC(C(=O)OCCCP(=O)(O)O)CC6)CSc6ccccc6)c(S(=O)(=O)C(F)(F)F)c5)cc4)CC3)c2)c(-c2ccc(Cl)cc2)n1C(C)C
IC50 (second compound 0.1 µM): 0.15 µM | IC50 (second compound 0.316 µM): 0.0826 µM | IC50 (second compound 1 µM): 0.0785 µM | IC50 (second compound 3.16 µM): 0.059 µM | IC50 (second compound 10 µM): 0.0757 µM | viability, T/C [1]: 104% | viability, T/C [2]: 102% | viability, T/C [3]: 71.8% | viability, T/C [4]: 54.8% | viability, T/C (second compound 0.1 µM, first compound 0.316 µM): 41.9% | viability, T/C (second compound 0.1 µM, first compound 1 µM): 17.6% | viability, T/C [5]: 93.7% | viability, T/C [6]: 97.3% | viability, T/C [7]: 66.7% | viability, T/C [8]: 42.1% | viability, T/C (second compound 0.316 µM, first compound 0.316 µM): 32.2% | viability, T/C (second compound 0.316 µM, first compound 1 µM): 9.34% | viability, T/C [9]: 90.7% | viability, T/C [10]: 95% | viability, T/C [11]: 74.5% | viability, T/C [12]: 38.3% | viability, T/C (second compound 1 µM, first compound 0.316 µM): 26.9% | viability, T/C (second compound 1 µM, first compound 1 µM): 4.46% | viability, T/C (second compound 3.16 µM, first compound 0.00316 µM): 81.2% | viability, T/C (second compound 3.16 µM, first compound 0.01 µM): 90.4% | viability, T/C (second compound 3.16 µM, first compound 0.0316 µM): 68.1% | viability, T/C (second compound 3.16 µM, first compound 0.1 µM): 31.6% | viability, T/C (second compound 3.16 µM, first compound 0.316 µM): 18.6% | viability, T/C (second compound 3.16 µM, first compound 1 µM): 1.8% | viability, T/C (second compound 10 µM, first compound 0.00316 µM): 115% | viability, T/C (second compound 10 µM, first compound 0.01 µM): 112% | viability, T/C (second compound 10 µM, first compound 0.0316 µM): 78.8% | viability, T/C (second compound 10 µM, first compound 0.1 µM): 41.1% | viability, T/C (second compound 10 µM, first compound 0.316 µM): 12.6% | viability, T/C (second compound 10 µM, first compound 1 µM): 2.47%

NC1CCC(NC2CC2c2ccccc2)CC1 (stereo not given) + CCN1C(C(=O)NC23CCC(C(=O)O)(CC2)CC3)C(c2cccc(Cl)c2F)C2(C(=O)Nc3cc(Cl)ccc32)C12CCCCC2
IC50 (second compound 0.03 µM): > 0.1 µM | IC50 (second compound 0.0949 µM): > 0.1 µM | IC50 (second compound 0.3 µM): > 0.1 µM | IC50 (second compound 0.949 µM): > 0.1 µM | IC50 (second compound 3 µM): > 0.1 µM | viability, T/C (second compound 0.03 µM, first compound 0.000316 µM): 98.4% | viability, T/C (second compound 0.03 µM, first compound 0.001 µM): 90.7% | viability, T/C [13]: 88.6% | viability, T/C [14]: 85.9% | viability, T/C [15]: 97.3% | viability, T/C [16]: 89.8% | viability, T/C (second compound 0.0949 µM, first compound 0.000316 µM): 89.9% | viability, T/C (second compound 0.0949 µM, first compound 0.001 µM): 100% | viability, T/C [17]: 88.5% | viability, T/C [18]: 82.5% | viability, T/C [19]: 93% | viability, T/C [20]: 85.7% | viability, T/C (second compound 0.3 µM, first compound 0.000316 µM): 89.9% | viability, T/C (second compound 0.3 µM, first compound 0.001 µM): 90.9% | viability, T/C [21]: 93.2% | viability, T/C [22]: 77.5% | viability, T/C [23]: 94.3% | viability, T/C [24]: 97.3% | viability, T/C (second compound 0.949 µM, first compound 0.000316 µM): 89.4% | viability, T/C (second compound 0.949 µM, first compound 0.001 µM): 97.9% | viability, T/C [25]: 97.6% | viability, T/C [26]: 88.9% | viability, T/C [27]: 85.5% | viability, T/C [28]: 95.2% | viability, T/C (second compound 3 µM, first compound 0.000316 µM): 102% | viability, T/C (second compound 3 µM, first compound 0.001 µM): 99.6% | viability, T/C [29]: 105% | viability, T/C [30]: 83.7% | viability, T/C [31]: 89.5% | viability, T/C [32]: 91.5%

CNC(C)C(=O)NC1CN(S(=O)(=O)c2cccc(S(=O)(=O)N3CCC4CCC(C(=O)NC(c5ccccc5)c5ccccc5)N4C(=O)C(NC(=O)C(C)NC)C3)c2)CCC2CCC(C(=O)NC(c3ccccc3)c3ccccc3)N2C1=O (stereo not given) + CCN1C(C(=O)NC23CCC(C(=O)O)(CC2)CC3)C(c2cccc(Cl)c2F)C2(C(=O)Nc3cc(Cl)ccc32)C12CCCCC2
IC50 (second compound 0.03 µM): > 1 µM | IC50 (second compound 0.0949 µM): > 1 µM | IC50 (second compound 0.3 µM): > 1 µM | IC50 (second compound 0.949 µM): > 1 µM | IC50 (second compound 3 µM): > 1 µM | viability, T/C [13]: 97.3% | viability, T/C [14]: 107% | viability, T/C [15]: 86.2% | viability, T/C [16]: 84.7% | viability, T/C (second compound 0.03 µM, first compound 0.316 µM): 94.4% | viability, T/C (second compound 0.03 µM, first compound 1 µM): 75% | viability, T/C [17]: 90.5% | viability, T/C [18]: 102% | viability, T/C [19]: 80.7% | viability, T/C [20]: 77.1% | viability, T/C (second compound 0.0949 µM, first compound 0.316 µM): 78.8% | viability, T/C (second compound 0.0949 µM, first compound 1 µM): 78.3% | viability, T/C [21]: 102% | viability, T/C [22]: 94% | viability, T/C [23]: 84.5% | viability, T/C [24]: 74.7% | viability, T/C (second compound 0.3 µM, first compound 0.316 µM): 87.3% | viability, T/C (second compound 0.3 µM, first compound 1 µM): 95.3% | viability, T/C [25]: 109% | viability, T/C [26]: 102% | viability, T/C [27]: 87.5% | viability, T/C [28]: 70.2% | viability, T/C (second compound 0.949 µM, first compound 0.316 µM): 85.1% | viability, T/C (second compound 0.949 µM, first compound 1 µM): 95% | viability, T/C [29]: 102% | viability, T/C [30]: 101% | viability, T/C [31]: 96.7% | viability, T/C [32]: 79.9% | viability, T/C (second compound 3 µM, first compound 0.316 µM): 84.4% | viability, T/C (second compound 3 µM, first compound 1 µM): 90.8%
